Experiments:
[1] = target: Histamine H2 receptor (Homo sapiens, UniProt P25021); assay type: cell membranes, CHO-K1, Membrane; conditions: for Ki: read-out: Ki; for all read-outs here: in other assays of this panel Not Active means under 50% inhibition at 10 µM
[2] = target: T1, Receptor-type tyrosine-protein phosphatase C (Homo sapiens, UniProt P08575); design: species or system Escherichia coli;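 note: inhibition of CD45 enzyme activity measured using DiFMUP as substrate; in other assays of this panel Not Active means under 50% inhibition at 10 µM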
T1 sequence (P08575 whole entry): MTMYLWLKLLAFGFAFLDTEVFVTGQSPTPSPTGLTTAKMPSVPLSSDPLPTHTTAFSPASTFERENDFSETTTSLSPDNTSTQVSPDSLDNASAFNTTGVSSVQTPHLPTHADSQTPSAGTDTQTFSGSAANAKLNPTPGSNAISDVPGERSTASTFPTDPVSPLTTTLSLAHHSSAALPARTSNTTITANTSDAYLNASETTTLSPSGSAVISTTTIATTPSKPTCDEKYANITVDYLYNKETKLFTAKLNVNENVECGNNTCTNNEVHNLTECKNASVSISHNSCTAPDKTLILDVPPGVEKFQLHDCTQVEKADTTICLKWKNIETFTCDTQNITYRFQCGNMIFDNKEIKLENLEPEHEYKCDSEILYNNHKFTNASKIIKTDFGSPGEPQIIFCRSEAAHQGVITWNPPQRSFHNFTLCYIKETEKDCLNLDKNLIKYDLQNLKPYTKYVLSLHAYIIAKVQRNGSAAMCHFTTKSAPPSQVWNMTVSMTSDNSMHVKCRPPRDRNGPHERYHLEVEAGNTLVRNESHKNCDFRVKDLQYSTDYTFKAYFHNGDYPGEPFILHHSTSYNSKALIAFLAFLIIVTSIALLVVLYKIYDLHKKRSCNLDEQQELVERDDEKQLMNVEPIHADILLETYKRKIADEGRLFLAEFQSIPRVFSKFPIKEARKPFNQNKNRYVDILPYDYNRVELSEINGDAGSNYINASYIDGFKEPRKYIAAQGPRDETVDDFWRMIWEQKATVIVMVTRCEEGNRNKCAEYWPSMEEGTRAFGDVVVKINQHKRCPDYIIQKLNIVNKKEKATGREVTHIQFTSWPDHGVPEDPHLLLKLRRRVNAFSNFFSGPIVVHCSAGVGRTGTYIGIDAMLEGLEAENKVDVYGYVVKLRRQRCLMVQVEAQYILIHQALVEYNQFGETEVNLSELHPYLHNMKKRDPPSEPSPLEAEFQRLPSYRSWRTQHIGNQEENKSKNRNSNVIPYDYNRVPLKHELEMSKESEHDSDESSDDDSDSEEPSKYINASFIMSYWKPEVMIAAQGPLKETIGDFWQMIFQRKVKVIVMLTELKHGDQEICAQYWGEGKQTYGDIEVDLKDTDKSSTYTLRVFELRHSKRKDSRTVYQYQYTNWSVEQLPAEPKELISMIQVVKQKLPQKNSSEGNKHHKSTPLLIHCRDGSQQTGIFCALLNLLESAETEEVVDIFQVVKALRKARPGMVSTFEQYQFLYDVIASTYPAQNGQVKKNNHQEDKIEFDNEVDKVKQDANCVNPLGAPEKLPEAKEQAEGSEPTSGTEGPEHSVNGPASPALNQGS

[3] = target: Delta-type opioid receptor (Homo sapiens, UniProt P41143); assay type: cell membranes, HEK293, Membrane; conditions: hek293; note: in other assays of this panel Not Active means under 50% inhibition at 10 µM
Chain of Delta-type opioid receptor (P41143 whole entry): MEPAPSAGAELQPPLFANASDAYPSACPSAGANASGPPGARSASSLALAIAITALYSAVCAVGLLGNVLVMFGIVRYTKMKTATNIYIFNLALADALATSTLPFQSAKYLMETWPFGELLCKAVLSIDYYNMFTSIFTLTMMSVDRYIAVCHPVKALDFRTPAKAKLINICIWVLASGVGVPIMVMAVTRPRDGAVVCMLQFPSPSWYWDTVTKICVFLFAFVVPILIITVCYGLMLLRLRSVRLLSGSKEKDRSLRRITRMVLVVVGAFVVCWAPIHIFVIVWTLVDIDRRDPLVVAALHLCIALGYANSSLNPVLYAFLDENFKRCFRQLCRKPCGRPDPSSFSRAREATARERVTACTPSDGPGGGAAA

[4] = DRUGMATRIX: GABAA, Flunitrazepam, Central radioligand binding (ligand: [3H] Flunitrazepam); assay type: cell membranes, Rattus norvegicus, Wistar, Brain, Membrane; conditions: Not Active = under 50% inhibition at 10 µM
[5] = target: T2, B2 bradykinin receptor (Homo sapiens, UniProt P30411); assay type: cell membranes, Membrane; conditions: chem-1; note: in other assays of this panel Not Active means under 50% inhibition at 10 µM
T2 sequence (P30411 whole entry): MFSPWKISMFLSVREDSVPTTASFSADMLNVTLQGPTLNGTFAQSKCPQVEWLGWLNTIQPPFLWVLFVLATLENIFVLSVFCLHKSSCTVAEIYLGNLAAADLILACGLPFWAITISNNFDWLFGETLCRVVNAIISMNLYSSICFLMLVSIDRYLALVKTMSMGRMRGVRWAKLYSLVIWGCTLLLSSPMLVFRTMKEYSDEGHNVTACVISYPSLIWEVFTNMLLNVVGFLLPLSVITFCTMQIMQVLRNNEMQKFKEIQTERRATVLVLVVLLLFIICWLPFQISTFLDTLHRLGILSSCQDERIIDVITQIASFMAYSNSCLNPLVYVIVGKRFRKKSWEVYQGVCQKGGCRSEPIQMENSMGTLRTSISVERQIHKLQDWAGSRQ

[6] = target: Sodium-dependent dopamine transporter (Homo sapiens, UniProt Q01959); assay: DRUGMATRIX: Dopamine Transporter radioligand binding (ligand: [125I] RTI-55); assay type: cell membranes, CHO-K1, Membrane; conditions: Not Active = under 50% inhibition at 10 µM
Chain of Sodium-dependent dopamine transporter (Q01959 whole entry): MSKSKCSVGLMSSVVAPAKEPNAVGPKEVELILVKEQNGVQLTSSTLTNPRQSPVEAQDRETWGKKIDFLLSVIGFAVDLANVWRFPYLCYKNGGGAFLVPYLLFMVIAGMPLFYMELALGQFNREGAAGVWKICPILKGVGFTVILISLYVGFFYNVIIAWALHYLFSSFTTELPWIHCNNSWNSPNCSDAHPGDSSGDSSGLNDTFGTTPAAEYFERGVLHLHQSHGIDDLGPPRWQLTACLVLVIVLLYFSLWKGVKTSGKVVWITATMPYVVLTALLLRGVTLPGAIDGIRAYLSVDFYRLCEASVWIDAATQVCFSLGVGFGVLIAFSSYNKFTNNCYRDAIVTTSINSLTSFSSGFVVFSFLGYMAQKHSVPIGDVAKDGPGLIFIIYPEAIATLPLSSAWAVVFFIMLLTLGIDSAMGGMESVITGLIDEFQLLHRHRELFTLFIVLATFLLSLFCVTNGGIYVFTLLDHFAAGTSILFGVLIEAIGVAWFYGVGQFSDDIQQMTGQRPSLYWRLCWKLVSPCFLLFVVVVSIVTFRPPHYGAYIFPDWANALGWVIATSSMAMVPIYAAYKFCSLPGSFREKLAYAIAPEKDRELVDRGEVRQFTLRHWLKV

[7] = target: Protein kinase C alpha type (Homo sapiens, UniProt P17252); assay type: cell-based; conditions: sf9

Chain of Histamine H2 receptor (P25021 whole entry): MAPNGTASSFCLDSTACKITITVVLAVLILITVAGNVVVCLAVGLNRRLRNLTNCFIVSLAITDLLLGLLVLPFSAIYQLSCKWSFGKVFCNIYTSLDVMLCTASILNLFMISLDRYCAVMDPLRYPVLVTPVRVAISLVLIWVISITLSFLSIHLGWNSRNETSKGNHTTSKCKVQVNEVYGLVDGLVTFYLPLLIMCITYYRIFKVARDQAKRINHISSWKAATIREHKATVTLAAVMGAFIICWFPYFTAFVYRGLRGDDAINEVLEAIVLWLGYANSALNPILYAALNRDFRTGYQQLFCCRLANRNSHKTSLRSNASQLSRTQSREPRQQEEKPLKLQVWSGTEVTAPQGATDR

SMILES	IC50 ([1]; cho-k1)	IC50 [2]	IC50 [3]	IC50 [4]	Ki [4]	IC50 [5]	IC50 ([6]; cho-k1)	IC50 [7]	IC50 ([6]; read-out: IC50) [nM]	Ki ([6]; read-out: Ki) [nM]	IC50 ([1]; read-out: IC50) [nM]	Ki [1] [nM]
CC#C[C@]1(O)CC[C@H]2[C@@H]3CCC4=CC(=O)CCC4=C3[C@@H](c3ccc(N(C)C)cc3)C[C@@]21C [MIFEPRISTONE]	Not Active	Not Active	Not Active	Not Active	Not Active	Not Active	Not Active	Not Active				
CC[C@@]1(O)C(=O)OCc2c1cc1n(c2=O)Cc2cc3c(CN(C)C)c(O)ccc3nc2-1 [TOPOTECAN]	Not Active	Not Active	Not Active	Not Active	Not Active	Not Active	Not Active	Not Active				
Nc1nc(N)c2nc(-c3ccccc3)c(N)nc2n1	Not Active	Not Active	Not Active	Not Active	Not Active	Not Active	Not Active	Not Active				
Cc1cc2c(s1)Nc1ccccc1N=C2N1CCN(C)CC1 [OLANZAPINE]	Not Active	Not Active	Not Active			Not Active	Not Active	Not Active				
CC[C@H](C)[C@@H](CO[C@@H](Cc1ccccc1)C(=O)N[C@@H](CCS(C)(=O)=O)C(=O)OC(C)C)NC[C@@H](N)CS	Not Active	Not Active	Not Active	Not Active	Not Active	Not Active	Not Active	Not Active				
CO[C@@]12[C@H](COC(N)=O)C3=C(C(=O)C(C)=C(N)C3=O)N1C[C@@H]1N[C@@H]12 [MITOMYCIN]	Not Active	Not Active	Not Active	Not Active	Not Active	Not Active	Not Active	Not Active				
CCOC(=O)C1=C(C)NC(C)=C(C(=O)OCC)C1c1ccccc1/C=C/C(=O)OC(C)(C)C [LACIDIPINE]	Not Active	Not Active	Not Active	Not Active	Not Active	Not Active	Not Active	Not Active				
Cc1cn([C@H]2C=C[C@@H](CO)O2)c(=O)[nH]c1=O [STAVUDINE]	Not Active	Not Active	Not Active	Not Active	Not Active	Not Active	Not Active	Not Active				
C#C[C@]1(O)CC[C@H]2[C@@H]3[C@H](C)CC4=C(CCC(=O)C4)[C@H]3CC[C@@]21C [TIBOLONE]	Not Active	Not Active	Not Active	Not Active	Not Active	Not Active	Not Active	Not Active				
CC(O)C(=O)O (configuration not stated) [LACTIC ACID]	Not Active	Not Active	Not Active	Not Active	Not Active	Not Active	Not Active	Not Active				
O=C(O)c1cc(/N=N/c2ccc(S(=O)(=O)Nc3ccccn3)cc2)ccc1O [SULFASALAZINE]	Not Active	Not Active	Not Active	Not Active	Not Active	Not Active	Not Active	Not Active				
CCN(CC)C(=S)SSC(=S)N(CC)CC	Not Active	Not Active	Not Active	Not Active	Not Active	Not Active		Not Active	4640	3680		
CNCCCC12CCC(c3ccccc31)c1ccccc12 [MAPROTILINE]		Not Active	Not Active			Not Active		Not Active			400	393
Cc1ccc(Cl)c(Nc2ccccc2C(=O)O)c1Cl [MECLOFENAMIC ACID]	Not Active	Not Active	Not Active	Not Active	Not Active	Not Active	Not Active	Not Active				
CC(C)(C)NC[C@H](O)COc1cccc2c1CCCC2=O [LEVOBUNOLOL]	Not Active	Not Active	Not Active	Not Active	Not Active	Not Active	Not Active	Not Active				
Cc1cccc(C)c1NC(=O)C(C)N (configuration not stated) [TOCAINIDE]	Not Active	Not Active	Not Active	Not Active	Not Active	Not Active	Not Active	Not Active				
CCOc1cc(N)c(Cl)cc1C(=O)NCC1CN(Cc2ccc(F)cc2)CCO1 (configuration not stated) [MOSAPRIDE]	Not Active	Not Active	Not Active	Not Active	Not Active	Not Active	Not Active	Not Active				
Cc1cnc(NC(=O)C2=C(O)c3ccccc3S(=O)(=O)N2C)s1 [MELOXICAM]	Not Active	Not Active	Not Active	Not Active	Not Active	Not Active	Not Active	Not Active				
O=C1CC[C@@]2(O)[C@H]3Cc4ccc(O)c5c4[C@@]2(CCN3CC2CC2)[C@H]1O5 [NALTREXONE]	Not Active	Not Active		Not Active	Not Active	Not Active	Not Active	Not Active				
O=C(c1ccccc1)c1ccc2n1CCC2C(=O)O (configuration not stated) [KETOROLAC]	Not Active	Not Active	Not Active	Not Active	Not Active	Not Active	Not Active	Not Active				
Oc1ccc(/C=C/c2cc(O)cc(O)c2)cc1 [RESVERATROL]	Not Active	Not Active	Not Active	Not Active	Not Active	Not Active	Not Active	Not Active				
CN1C(=O)OC(C)(C)C1=O [TRIMETHADIONE]	Not Active	Not Active	Not Active	Not Active	Not Active	Not Active	Not Active	Not Active				
Cc1[nH]c(=O)c(C#N)cc1-c1ccncc1 [MILRINONE]	Not Active	Not Active	Not Active	Not Active	Not Active	Not Active	Not Active	Not Active				
CN(C)CCC=C1c2ccccc2COc2ccccc21 [DOXEPIN]		Not Active	Not Active			Not Active		Not Active				
CN1C[C@H](CNC(=O)OCc2ccccc2)C[C@@H]2c3cccc4c3c(cn4C)C[C@H]21 [METERGOLINE]		Not Active	Not Active	Not Active	Not Active	Not Active		Not Active			975	959
